Experimental data from patent publication US10221129B2, “Inhibitors of human immunodeficiency virus replication” (ViiV HEALTHCARE UK (NO.5) LIMITED, priority 2015, dated 2019).
pEC50: −log10 of the molar value.

How the values were obtained:
[1] = tested on: recombinant NL4-3 virus (nef section replaced with Renilla luciferase gene) in MT-2 cells; assay: HIV cell culture assay (antiviral activity, luciferase readout); assay type: cell-based
Description: HIV cell culture assay—MT-2 cells, 293T cells and the proviral DNA clone of NL4-3 virus were obtained from the NIH AIDS Research and Reference Reagent Program. MT-2 cells were propagated in RPMI 1640 media supplemented with 10% heat inactivated fetal bovine serum (FBS), 100 jag/ml penicillin G and up to 100 units/mL streptomycin. The 293T cells were propagated in DMEM media supplemented with 10% heat inactivated FBS, 100 μg/mL penicillin G and 100 μg/mL streptomycin. A recombinant NL4-3 proviral clone, in which a section of the nef gene was replaced with the Renilla luciferase gene, was used to make the reference virus used in these studies. The recombinant virus was prepared through transfection of the recombinant NL4-3 proviral clone into 293T cells using Transit-293 Transfection Reagent from Mirus Bio LLC (Madison, Wis.). Supernatant was harvested after 2-3 days and the amount of virus present was titered in MT-2 cells using luciferase enzyme activity as a marker by measuring luciferase enzyme activity. Luciferase was quantitated using the EnduRen Live Cell Substrate from Promega (Madison, Wis.). Antiviral activities of compounds toward the recombinant virus were quantified by measuring luciferase activity in MT-2 cells infected for 4-5 days with the recombinant virus in the presence of serial dilutions of the compound.
(Johnson V A, Byington R T. Infectivity Assay. In Techniques in HIV Research. ed. Aldovini A, Walker B D. 71-76. New York: Stockton Press. 1990).

[2] = Compound cytotoxicity, XTT-based colorimetric assay; assay type: cell-based; details: human, uninfected MT2 cells, day 4, XTT
Description: Compound cytotoxicity and the corresponding CC50 values were determined using the same protocol as described in the antiviral assay except that uninfected cells were used. Cytotoxicity was assessed on day 4 in uninfected MT2 cells by using a XTT (2,3-bis[2-Methoxy-4-nitro-5-sulfophenyl]-2H-tetrazolium-5-carboxyanilide inner salt)-based colorimetric assay (Sigma-Aldrich, St Louis, Mo.).

[3] = Renilla, NL43, MT-2 cells infected for 4-5 days with recombinant NL4-3 Renilla luciferase virus
[4] = MT-2 cells infected for 4-5 days with recombinant NL4-3 Renilla luciferase virus

Row | SMILES | pEC50 [1, 3] | CC50 at 4 days [2] | pEC50 [1, 4] | CC50 at 4 day [2]
1 | CN(C(=O)[C@H](Cc1cc(F)cc(F)c1)NC(=O)NS(=O)(=O)N1CCC(c2ccccc2)C1)c1ccc2scnc2c1 (mixture of isomers) [CA-152] | 6.26 | > 100000 nM | – | –
2 | COc1ccc(N(C)C(=O)[C@H](Cc2ccccc2)NC(=O)NS(=O)(=O)N2CCN(C)CC2c2ccccc2)cc1 (mixture of isomers) [JB-42] | 6.35 | > 100000 nM | – | –
3 | COc1ccc(N(C)C(=O)[C@H](Cc2ccccc2)NC(=O)NS(=O)(=O)NC(C)c2ncnn2C)cc1 (mixture of isomers) [JB-68] | 5.63 | > 100000 nM | – | –
4 | CN(C)C(=O)C1Cc2cccnc2N1S(=O)(=O)NC(=O)N[C@@H](Cc1cc(F)cc(F)c1)C(=O)N(C)c1ccc2scnc2c1 (single isomer, unassigned) [BB-28] | – | > 100000 nM | 5.22 | –
5 | CN(C(=O)[C@H](Cc1cc(F)cc(F)c1)NC(=O)NS(=O)(=O)N1CCCC1c1ccccn1)c1ccc2scnc2c1 (single isomer, unassigned) [VN-1] | – | > 100000 nM | 5.61 | –
6 | CN(C(=O)[C@H](Cc1cc(F)cc(F)c1)NC(=O)NS(=O)(=O)N1CCCC1c1ccccc1)c1ccc2scnc2c1 (single isomer, unassigned) [VN-3] | – | 52400 nM | 6.07 | –
7 | CC1Cc2cccnc2N1S(=O)(=O)NC(=O)N[C@@H](Cc1cc(F)cc(F)c1)C(=O)N(C)c1ccc2scnc2c1 (single isomer, unassigned) [VN-6] | – | – | 7.70 | > 1000 nM
8 | CC1CN(S(=O)(=O)NC(=O)N[C@@H](Cc2cc(F)cc(F)c2)C(=O)N(C)c2ccc3scnc3c2)c2ncccc21 (single isomer, unassigned) [VN-14] | – | > 100000 nM | – | –
9 | CN(C(=O)[C@H](Cc1cc(F)cc(F)c1)NC(=O)NS(=O)(=O)N1CCOc2cccnc21)c1ccc2scnc2c1 [AW-1] | 6.96 | > 100000 nM | – | –
10 | COc1ccc2c(n1)N(S(=O)(=O)NC(=O)N[C@@H](Cc1cc(F)cc(F)c1)C(=O)N(C)c1ccc3scnc3c1)CC2 [AW-2] | 8.00 | > 100000 nM | – | –
11 | COc1ccc(N(C)C(=O)[C@H](Cc2cc(F)cc(F)c2)NC(=O)NS(=O)(=O)N2CCC(F)(F)CC2)cc1F [AW-3] | 6.01 | > 100000 nM | – | –
12 | COc1ccc(N(C)C(=O)[C@H](Cc2cc(F)cc(F)c2)NC(=O)NS(=O)(=O)N2CCCCC2)cc1F [AW-4] | 6.32 | > 100000 nM | – | –
13 | CN(C(=O)[C@H](Cc1cc(F)cc(F)c1)NC(=O)NS(=O)(=O)N1CCc2cccnc21)c1ccc(=O)n(C)c1 [BB-1] | 4.96 | > 100000 nM | – | –
14 | CCc1ccc(N(C)C(=O)[C@H](Cc2cc(F)cc(F)c2)NC(=O)NS(=O)(=O)N2CCc3cccnc32)cc1 [BB-2] | 7.70 | 96000 nM | – | –
15 | CN(C(=O)[C@H](Cc1cc(F)cc(F)c1)NC(=O)NS(=O)(=O)N1CCc2cccnc21)c1ccc(N2CCOCC2)cc1 [BB-3] | 6.47 | 68100 nM | – | –
16 | COc1ccc(N(C)C(=O)[C@H](Cc2cc(F)cc(F)c2)NC(=O)NS(=O)(=O)N2CCc3c(Cl)ccnc32)cc1 [BB-4] | 6.38 | 61900 nM | – | –
17 | CN(C(=O)[C@H](Cc1cc(F)cc(F)c1)NC(=O)NS(=O)(=O)N1CCc2cccnc21)c1ccc(C(N)=O)cc1 [BB-5] | 5.31 | > 100000 nM | – | –
18 | Cc1cc(N(C)C(=O)[C@H](Cc2ccccc2)NC(=O)NS(=O)(=O)N2CCc3cccnc32)ccc1Cl [BB-6] | 6.47 | > 33300 nM | – | –
19 | CN(C(=O)[C@H](Cc1cc(F)cc(F)c1)NC(=O)NS(=O)(=O)N1CCc2c(Cl)ccnc21)c1ccc2scnc2c1 [BB-8] | 6.36 | 82400 nM | – | –
20 | CN(C(=O)[C@H](Cc1cc(F)cc(F)c1)NC(=O)NS(=O)(=O)N1CCc2ccncc21)c1ccc2scnc2c1 [BB-9] | 6.39 | > 100000 nM | – | –
21 | COc1ccc(N(C)C(=O)[C@H](Cc2cc(F)cc(F)c2)NC(=O)NS(=O)(=O)N2CCc3ccncc32)cc1 [BB-10] | 5.97 | > 100000 nM | – | –
22 | CCCc1ccc(N(C)C(=O)[C@H](Cc2cc(F)cc(F)c2)NC(=O)NS(=O)(=O)N2CCc3cccnc32)cc1 [BB-11] | 8.00 | 66300 nM | – | –
23 | CC(C)Oc1ccc(N(C)C(=O)[C@H](Cc2cc(F)cc(F)c2)NC(=O)NS(=O)(=O)N2CCc3cccnc32)cn1 [BB-12] | 7.70 | 94900 nM | – | –
24 | Cc1cc(F)cc(N(C)C(=O)[C@H](Cc2cc(F)cc(F)c2)NC(=O)NS(=O)(=O)N2CCc3cccnc32)c1 [BB-13] | 6.57 | 89500 nM | – | –
